Measured values from article PMC4833520 (Bioorganic & medicinal chemistry, 2016).

Experiments:
σ1 receptor = σ1 receptor (Cavia porcellus, UniProt Q60492); assay: PDSP radioligand binding, σ1 receptor
[1] = biological target: human dopamine D1 receptor (Homo sapiens, UniProt P21728); assay: PDSP radioligand binding, dopamine D1 receptor; details: ratio of Ki values
Sequence of human dopamine D1 receptor (P21728 whole entry): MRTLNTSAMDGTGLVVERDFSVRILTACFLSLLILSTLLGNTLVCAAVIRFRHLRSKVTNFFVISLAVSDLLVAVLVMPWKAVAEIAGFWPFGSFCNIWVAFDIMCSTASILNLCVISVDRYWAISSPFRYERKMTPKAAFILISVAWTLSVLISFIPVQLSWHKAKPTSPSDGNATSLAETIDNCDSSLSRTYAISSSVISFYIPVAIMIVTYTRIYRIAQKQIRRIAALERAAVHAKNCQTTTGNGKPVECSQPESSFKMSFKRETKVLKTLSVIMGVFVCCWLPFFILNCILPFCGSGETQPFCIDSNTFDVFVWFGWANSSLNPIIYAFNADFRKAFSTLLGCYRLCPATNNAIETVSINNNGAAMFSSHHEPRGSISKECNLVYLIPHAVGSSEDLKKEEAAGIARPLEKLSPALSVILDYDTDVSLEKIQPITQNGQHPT

Sequence of σ1 receptor (Q60492 whole entry): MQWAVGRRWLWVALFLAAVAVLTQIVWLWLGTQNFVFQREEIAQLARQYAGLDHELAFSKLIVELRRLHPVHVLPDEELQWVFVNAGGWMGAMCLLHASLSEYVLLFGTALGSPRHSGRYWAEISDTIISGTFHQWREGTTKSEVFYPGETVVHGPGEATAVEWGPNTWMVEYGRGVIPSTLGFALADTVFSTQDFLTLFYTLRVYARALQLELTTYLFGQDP

selectivity for σ1 versus σ2 receptors (σ1 receptor)	Selectivity D3/D1 [1]	Compound
approximately 3 fold		CCCCCCOc1ccc2c(c1OC)CN1CCc3cc(OC)c(O)cc3C1C2 (centres unmarked) [Compound 15, 10-(Hexyloxy)-3,9-dimethoxy-5,8,13,13a-tetrahydro-6H-isoquinolino[3,2-a]isoquinolin-2-ol]
	16	COc1cc2c(cc1O)C1Cc3ccc(OCCCO)c(OC)c3CN1CC2 (centres unmarked) [Compound 16, 10-(3-Hydroxypropoxy)-3,9-dimethoxy-5,8,13,13a-tetrahydro-6H-isoquinolino[3,2-a]isoquinolin-2-ol]
